SMILES strings stand for the structures.

This note sets out measurements from patent US20260083743A1, “NUCLEOSIDE DERIVATIVE FOR PREVENTING AND TREATING INFLAMMATION AND APPLICATION THEREOF” (WEST CHINA HOSPITAL OF SICHUAN UNIVERSITY, priority 2019, published 2026).

In data set [1] the test system is C57 mice. The experiment in a line: Toxicity test, 180 consecutive days by gavage in C57 mice. Format: in vivo. Particulars: 100 mg/kg/D for 180 consecutive days by gavage. Here is the method:
In this example, the toxicities of compounds 1-19 prepared in example 1 were analyzed.
C57 mice were given compounds 1-19 at a dose of 100 mg/kg/D for 180 consecutive days by gavage. One hour after the last administration of the drug, the mice were anesthetized by intraperitoneal injection of sodium pentobarbital (40 mg/kg), placed on a constant temperature hot plate at 37±1° C., blood was taken by cardiac puncture or pathological sections were made to detect the side effects (gastrointestinal reaction, nervous system toxicity, hematological toxicity, allergic reaction, nephrotoxicity, hepatotoxicity, rash and asthma) The side effects of aspirin, ibuprofen, indomethacin, phenylbutazone, diclofenac, piroxicam and glucocorticoid groups were investigated according to the same administration method as compounds 1-19.

Data set [2] relates to mouse hepatitis model. Kind of data set: Improvement effect on hepatitis, concanavalin A (ConA) mouse hepatitis model. Particulars: gavage 50 mg/kg, n = 10. Format: in vivo, Blab/c mice. As for the experimental part:
In this example, the improvement effect of compounds 1 19 prepared in example 1 on […] measured. (1) Animals: Adult and Healthy Male Blab/c Mice, 25 30 g. […] The blank control group was injected with equal volume of isotonic saline. After modeling, indomethacin and compounds 1 19 were given by gavage every day at the dose of 50 mg/kg. The blank control group and the model control group were given equal volume of isotonic saline. Eyeball blood and liver tissue were taken at 6 h, 12 h, 24 h and 48 h after administration. The levels of serum alanine aminotransferase (ALT) and aspartate aminotransferase (AST) were measured.

Data set [3] relates to arthritis model. Kind of data set: Improvement effect on arthritis, sodium iodoacetate knee joint model in SD rats. Format: in vivo. Details: Pathological tissue score (joint): scale not given here. Particulars: gavage every day 100 mg/kg/d; 4th week after operation; n = 10. As for the experimental part: In this example, the improvement effect of compounds 1˜19 prepared in example 1 on arthritic was measured. (1) Animals: SD rats, four rates in one cage, were fed under the conditions of constant temperature (25±2° C.) and illumination control (12 h day/night circulation). The animals were fed with standard feed, and fed for at least 7 days to adapt environment before the experiment. […] (3) SD rats were fasted for 12 hours before operation, and weighed and recorded prior to operation. The blank control group was not treated any more. […] After anesthesia, they were fixed in the supine position. 0.1 ml of 1 g/L sodium iodoacetate solution was injected into the knee joint. From the fifth day, the animals were driven to run for 30 minutes every day, and they were allowed to move freely in the cage the rest of the time. After modeling, indomethacin and compounds 1˜19 were given by gavage every day at the dose of 100 mg/kg/d. The blank control group and the model control group were given equal volume of isotonic saline. At the 4th week after operation, the articular fluid of rats in each group was extracted to measure the content of MMP-13. The rats were killed, and the subchondral bone plate of the inner condyle of the tibia of the right knee was cut and processed into specimens, and pathological scores were made.

Data set [4] has as its system sodium taurocholate-induced pancreatitis model. Kind of data set: Improvement effect on pancreatitis, sodium taurocholate-induced model in mice. Format: in vivo, Blab/c mice. Details: Pancreatic histopathological injury score: scale not given here. Conditions: 17.5 mg/kg caudal vein 1 h, 3 h and 6 h after model construction; after 24 hours; n = 10. From the text: In this example, the improvement effect of compounds 1 19 prepared in example 1 on […] measured. (1) Animals: Adult and Healthy Male Blab/c Mice, 25 30 g. […] A model was made with sodium taurocholate. […] After anesthesia, the surgical site was sterilized with an alcohol cotton ball. The sterile gauze was placed on the surgical site. A laparotomy was made at the width of two fingers under the xiphoid process. After seeing the liver, an incision was made, the cotton swab soaked in normal saline was stretched into the enterocoelia, the duodenum was sought on the back of the liver, turned out and placed on the sterile gauze, the pancreaticobiliary duct and duodenal papilla were sought, and the needle of 1 mL syringe was used to pierce a hole on the along the direction of the nipple, a 24 G indwelling needle tube was inserted into the pancreatic duct along the nipple, and the common bile duct below the liver was closed with an arterial vascular clip, with a dose of 0.1 mL/100 g and 0.1 mL/min inject sodium taurocholate with a concentration of 3.8% at a flow rate. During this process, pay attention to adding saline to the exposed pancreas and duodenum to keep it moist. After the injection, the tube was slowly taken out and the bile duct was continued to be closed. The main tube was removed from the vascular artery clip 3 minutes later, the duodenum was also accommodated, and the abdominal cavity was sutured in double layers. The blank control group was injected with equal volume of isotonic saline. […] The blank control group and the model control group were given equal volume of isotonic saline. After 24 hours, pancreatic tissue and blood samples were taken, and the pancreatic histopathological injury score and the level of pancreatic amylase in serum were evaluated.

As for `CC(=O)Oc1ccccc1C(=O)O` [Aspirin, aspirin], the “Occurrence rate of side effects” value in data set [1] is given as 20%.
For `CCCCC1C(=O)N(c2ccccc2)N(c2ccccc2)C1=O` [Baotaisong, phenylbutazone], the “Occurrence rate of side effects” value in data set [1] turned out to be 20%.
Regarding `CCCC(=O)CCn1c(=O)c2c(ncn2C)n(C)c1=O` [Compound 18, 1-(2-butyrylethyl)-3,7-dimethylxanthine], in data set [2] (6 h after administration), the “Aspartate aminotransferase (AST)” value is given as 54 ± 7 U/L and the “Serum alanine aminotransferase (ALT)” value was 67 ± 8 U/L. In data set [2] (12 h after administration), the “Aspartate aminotransferase (AST)” value was found to be 98 ± 8 U/L and the “Serum alanine aminotransferase (ALT)” value came to 106 ± 11 U/L. In data set [2] (24 h after administration), the “Aspartate aminotransferase (AST)” value was found to be 131 ± 8 U/L and the “Serum alanine aminotransferase (ALT)” value is on record as 157 ± 15 U/L. Also, in data set [2] (48 h after administration), the “Aspartate aminotransferase (AST)” value is reported as 117 ± 9 U/L and the “Serum alanine aminotransferase (ALT)” value came to 121 ± 13 U/L. In addition, in data set [3], the “MMP-13 content in joint fluid” value is reported as 91 ± 8 mg/L and the “Pathological tissue score (joint)” value was 0.5 ± 0.3. In data set [4], the “Amylopsin (pancreatic amylase level in serum)” value was found to be 9 ± 2 KU/L and the “Pancreatic histopathological injury score” value is 1.3 ± 0.4.
For `CC(C)n1c(=O)[nH]cc(F)c1=O` [Compound 19, 3-isopropyl-5-fluorouracil], the “Aspartate aminotransferase (AST)” value in data set [2] (6 h after administration) worked out at 57 ± 7 U/L; in data set [2] (12 h after administration), 92 ± 8 U/L; in data set [2] (24 h after administration), 117 ± 9 U/L; in data set [2] (48 h after administration), 101 ± 9 U/L. Besides, the “Serum alanine aminotransferase (ALT)” value is listed as 55 ± 6 U/L in data set [2] (6 h after administration), 87 ± 6 U/L in data set [2] (12 h after administration), 139 ± 12 U/L in data set [2] (24 h after administration) and 111 ± 13 U/L in data set [2] (48 h after administration). The “MMP-13 content in joint fluid” value in data set [3] is listed as 89 ± 6 mg/L. In addition, the “Pathological tissue score (joint)” value in data set [3] turned out to be 0.3 ± 0.2. Besides, the “Amylopsin (pancreatic amylase level in serum)” value in data set [4] worked out at 8 ± 2 KU/L. Further, the “Pancreatic histopathological injury score” value in data set [4] is reported as 1.0 ± 0.3.
On to `O=C(O)Cc1ccccc1Nc1c(Cl)cccc1Cl` [Diclofenac, diclofenac], for which, in data set [1], the “Occurrence rate of side effects” value came out at 20%.
With `CC(C)Cc1ccc(C(C)C(=O)O)cc1` (stereo not shown) [Ibuprofen, ibuprofen], the “Occurrence rate of side effects” value in data set [1] turned out to be 20%.
For the compound `COc1ccc2c(c1)c(CC(=O)O)c(C)n2C(=O)c1ccc(Cl)cc1` [Indometacin, indometacin, reference compound], the “Occurrence rate of side effects” value in data set [1] is 20%. The “Aspartate aminotransferase (AST)” value in data set [2] (6 h after administration) came out at 220 ± 19 U/L; in data set [2] (12 h after administration), 780 ± 82 U/L; in data set [2] (24 h after administration), 1021 ± 103 U/L; in data set [2] (48 h after administration) it was 870 ± 91 U/L. Moreover, the “Serum alanine aminotransferase (ALT)” value in data set [2] (6 h after administration) came out at 465 ± 43 U/L; in data set [2] (12 h after administration) it was 1232 ± 113 U/L; in data set [2] (24 h after administration), 2165 ± 203 U/L; in data set [2] (48 h after administration) it was 1287 ± 133 U/L. For the same compound, the “MMP-13 content in joint fluid” value in data set [3] is 195 ± 8 mg/L. Also, the “Pathological tissue score (joint)” value in data set [3] is 2.1 ± 0.3.
In the case of `CN1C(C(=O)Nc2ccccn2)=C(O)c2ccccc2S1(=O)=O` [Piroxicam, piroxicam], in data set [1], the “Occurrence rate of side effects” value was found to be 20%.
